From PMC8230315, “A Pan-Inhibitor for Protein Arginine Methyltransferase Family Enzymes” (Biomolecules, 2021)

Target: T1, PRMT4 (Homo sapiens, UniProt Q86X55)
T1 construct: purchased Reaction Biology
T1 sequence (Q86X55 1-608): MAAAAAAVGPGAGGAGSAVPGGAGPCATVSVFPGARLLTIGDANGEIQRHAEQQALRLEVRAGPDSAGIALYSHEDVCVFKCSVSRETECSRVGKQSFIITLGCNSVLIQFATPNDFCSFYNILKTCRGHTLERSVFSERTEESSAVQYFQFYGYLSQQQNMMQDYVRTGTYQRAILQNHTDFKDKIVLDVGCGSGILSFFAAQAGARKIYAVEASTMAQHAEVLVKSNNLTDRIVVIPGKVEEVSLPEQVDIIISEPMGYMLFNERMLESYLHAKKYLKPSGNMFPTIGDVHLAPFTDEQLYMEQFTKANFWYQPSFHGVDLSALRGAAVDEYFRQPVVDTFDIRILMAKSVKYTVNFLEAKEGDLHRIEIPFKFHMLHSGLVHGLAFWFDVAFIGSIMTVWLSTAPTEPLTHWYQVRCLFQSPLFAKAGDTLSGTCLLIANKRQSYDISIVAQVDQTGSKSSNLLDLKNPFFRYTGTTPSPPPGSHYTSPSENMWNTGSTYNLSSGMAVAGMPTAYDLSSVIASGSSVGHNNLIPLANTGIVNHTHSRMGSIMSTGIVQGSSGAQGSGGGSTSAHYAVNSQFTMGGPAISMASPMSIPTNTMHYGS
Assay: HotSpot radioisotope 3H-AdoMet methyltransferase assay, PRMT4
Assay type: biochemical
Conditions: IC50 (nM) PRMT4, 10 doses, threefold serial dilution
Description: Future studies will focus on obtaining structural information of II757 bound to PRMTs to inform how to connect to a substrate portion to increase both potency and selectivity for each PRMT.
Figure 6 Selectivity of II757 against the panel of PRMTs. II757 was tested in 10 doses with threefold serial dilution in the HotSpot methyltransferase assay at reaction biology. TEXT PRINTED IN THE PICTURE: II757: IC50 (nM) PRMT1: 16.4; IC50 (nM) PRMT3: 321; IC50 (nM) PRMT4: 5.05; IC50 (nM) PRMT5/MEP50 Complex: 18.2; IC50 (nM) PRMT5 (C449S)/MEP50: 36.6; IC50 (nM) PRMT6: 30.5; IC50 (nM) PRMT7: 555; IC50 (nM) PRMT8: 32.1

Structure (SMILES): N=C(NCCCSC[C@H]1O[C@@H](n2cnc3c(N)ncnc32)[C@H](O)[C@@H]1O)Nc1cccc(Br)c1 [Compound 6l, 1-(3-((((2S,3S,4R,5R)-5-(6-amino-9H-purin-9-yl)-3,4-dihydroxytetrahydrofuran-2-yl)methyl)thio)propyl)-3-(3-bromophenyl)guanidine]
- IC50: 5 nM
